Laboratory results from US9156827B2, “Anticancer agent” (THE UNIVERSITY OF TOKYO, priority 2010, dated 2015).
Structures can show the parent of a compound that is named as a salt.

Columns and labels:
[1] = biological target: pim-1 kinase (Homo sapiens, UniProt P11309); experiment: Measurement of pim-1 kinase inhibitory activity (fluorescent substrate peptide, capillary electrophoresis); assay type: biochemical; settings: 0.1 μM of each compound, 30 μM ATP, 1.5 μM substrate peptide, room temperature 2 hours
pim-1 kinase, sequence (P11309 whole entry): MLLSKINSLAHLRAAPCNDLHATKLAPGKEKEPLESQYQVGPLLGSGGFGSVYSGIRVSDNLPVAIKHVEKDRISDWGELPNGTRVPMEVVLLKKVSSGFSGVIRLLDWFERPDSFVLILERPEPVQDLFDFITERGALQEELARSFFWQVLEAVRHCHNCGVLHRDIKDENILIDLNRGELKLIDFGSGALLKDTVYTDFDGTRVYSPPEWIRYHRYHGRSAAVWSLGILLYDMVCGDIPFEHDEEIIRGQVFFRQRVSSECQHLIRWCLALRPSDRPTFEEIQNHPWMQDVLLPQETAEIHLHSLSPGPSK
Description: Measurement of Pim-1 Kinase Inhibitory Activity
The result of the reaction was determined by quantifying the substrate and the phosphorylated reaction product separated by capillary electrophoresis based on difference in charges of the substances (EZ Reader II, Caliper Life Sciences, was used).

[2] = system: Human acute myeloid leukemia MV4-11 cells; experiment: Cell proliferation-suppressing activity, chromogenic method (Cell Counting Kit-8); assay type: cell-based; settings: compound 1 μM, 48 hours, Cell Counting Kit-8, absorbance 450 nm
Description: Measurement of Cell Proliferation-Suppressing Activity (Chromogenic Method)
Human acute myeloid leukemia MV4-11 cells (2×10^4 cells) are inoculated on a 96-well microtiter plate. Each compound is added at a final concentration of 1 μM on the next day, and the cells are cultured for additional 48 hours. Absorbance is measured at 450 nm by using Cell Counting Kit-8 (Nacalai Tesque) to calculate the cell proliferation-suppressing activity.

Structure (SMILES)	inhibition at 0.1 µM ([1]; Table 2)	inhibition at 1 µM ([2]; Table 7)	inhibition at 0.1 µM ([1]; Table 1)	inhibition at 1 µM ([2]; Table 6)
O=C1/C(=C/c2n[nH]c3ccccc23)Oc2c(CN3CCNCC3)cccc21 [Compound B45, (Z)-2-[(1H-Indazol-3-yl)methylene]-7-(piperazin-1-ylmethyl)benzofuran-3(2H)-one]	79%	28%	–	–
COc1ccc2c(c1C#CCC1CCNCC1)O/C(=C\c1n[nH]c3ccccc13)C2=O [Compound B58, (Z)-2-[(1H-Indazol-3-yl)methylene]-6-methoxy-7-[3-(piperidin-4-yl)prop-1-ynyl]benzofuran-3(2H)-one]	90%	94%	–	–
O=C1/C(=C/c2c[nH]c3ncccc23)Oc2c(CN3CCNCC3)cccc21 [Compound A58, (Z)-2-[(1H-Pyrrolo[2,3-b]pyridin-3-yl)methylene]-7-(piperazin-1-ylmethyl)benzofuran-3(2H)-one]	–	–	92%	72%
COc1ccc2c(c1/C=C\CC1CCNCC1)O/C(=C\c1n[nH]c3ccccc13)C2=O [Compound B59, (Z)-2-[(1H-Indazol-3-yl)methylene]-6-methoxy-7-[(Z)-3-(piperidin-4-yl)prop-1-enyl]benzofuran-3(2H)-one]	96%	55%	–	–
COc1ccc2c(c1CCCCC1CCNCC1)O/C(=C\c1n[nH]c3ccccc13)C2=O [Compound B63, (Z)-2-[(1H-Indazol-3-yl)methylene]-6-methoxy-7-[4-(piperidin-4-yl)butyl]benzofuran-3(2H)-one]	95%	95%	–	–
COc1ccc2c(c1/C=C\CN1CCNCC1)O/C(=C\c1n[nH]c3ccccc13)C2=O [Compound B47, (Z)-2-[(1H-Indazol-3-yl)methylene]-6-methoxy-7-[(Z)-3-(piperizin-1-yl)prop-1-enyl]benzofuran-3(2H)-one (Z)-2-[(1H-Indazol-3-yl)methylene]-6-methoxy-7-[(Z)-3-(piperazin-1-yl)prop-1-enyl]benzofuran-3(2H)-one]	84%	99%	–	–
COc1ccc2c(c1CC1CCNCC1)O/C(=C\c1n[nH]c3ccccc13)C2=O [Compound B54, (Z)-2-[(1H-Indazol-3-yl)methylene]-6-methoxy-7-(piperidin-4-ylmethyl)benzofuran-3(2H)-one]	98%	97%	–	–
COc1ccc2c(c1/C=C/CC1CCNCC1)O/C(=C\c1n[nH]c3ccccc13)C2=O [Compound B65, (Z)-2-[(1H-Indazol-3-yl)methylene]-6-methoxy-7-[(E)-3-(piperidin-4-yl)prop-1-enyl]benzofuran-3(2H)-one]	73%	97%	–	–
COc1ccc2c(c1CN1CCNCC1)O/C(=C\c1cn(S(=O)(=O)c3ccc(C)cc3)c3ccccc13)C2=O [Compound A57, (Z)-6-Methoxy-7-(piperazin-1-ylmethyl)-2-[(1-tosyl-1H-indol-3-yl)methylene]benzofuran-3(2H)-one]	–	–	28%	37%
O=C1/C(=C/c2n[nH]c3ncccc23)Oc2c1ccc(O)c2CN1CCNCC1 [Compound B68, (Z)-2-[(1H-Pyrazolo[3,4-b]pyridin-3-yl)methylene]-6-hydroxy-7-(piperazin-1-ylmethyl)benzofuran-3(2H)-one]	93%	52%	–	–
COc1ccc2c(c1CC1CCNCC1)O/C(=C\c1n[nH]c3ncccc13)C2=O [Compound B71, (Z)-2-[(1H-Pyrazolo[3,4-b]pyridin-3-yl)methylene]-6-methoxy-7-(piperidin-4-ylmethyl)benzofuran-3(2H)-one]	95%	100%	–	–
O=C1/C(=C/c2c[nH]c3ccccc23)Oc2c1ccc(O)c2CN1CCCNCC1 [Compound A55, (Z)-7-[(1,4-Diazepan-1-yl)methyl]-2-[(1H-indol-3-yl)methylene]-6-hydroxybenzofuran-3(2H)-one]	–	–	46%	79%
COc1ccc2c(c1/C=C\CCN1CCNCC1)O/C(=C\c1n[nH]c3ccccc13)C2=O [Compound B50, (Z)-2-[(1H-Indazol-3-yl)methylene]-6-methoxy-7-[(Z)-4-(piperazin-1-yl)but-1-enyl]benzofuran-3(2H)-one]	82%	96%	–	–
COc1c(F)cc2c(c1CCC1CCNCC1)O/C(=C\c1n[nH]c3ccccc13)C2=O [Compound B66, (Z)-2-[(1H-Indazol-3-yl)methylene]-5-fluoro-6-methoxy-7-[2-(piperidin-4-yl)ethyl]benzofuran-3(2H)-one]	89%	88%	–	–
COc1ccc2c(c1/C=C\CCC1CCNCC1)O/C(=C\c1n[nH]c3ccccc13)C2=O [Compound B62, (Z)-2-[(1H-Indazol-3-yl)methylene]-6-methoxy-7-[(Z)-4-(piperidin-4-yl)but-1-enyl]benzofuran-3(2H)-one]	71%	93%	–	–
COc1ccc2c(c1C#CC(C)(C)N1CCNCC1)O/C(=C\c1n[nH]c3ccccc13)C2=O [Compound B67, (Z)-2-[(1H-Indazol-3-yl)methylene]-6-methoxy-7-[3-methyl-3-(piperazin-1-yl)but-1-ynyl]benzofuran-3(2H)-one]	46%	96%	–	–
COC(=O)c1ccc2c(/C=C3\Oc4c(ccc(O)c4CN4CCNCC4)C3=O)c[nH]c2c1 [Compound A23, Methyl (Z)-3-{[6-hydroxy-3-oxo-7-(piperazin-1-ylmethyl)benzofuran-2(3H)-ylidene]methyl}-1H-indole-6-carboxylate]	–	–	56%	–
COc1ccc2c(c1CN1CCOCC1)O/C(=C\c1c[nH]c3ccccc13)C2=O [Compound A41, (Z)-2-[(1H-Indol-3-yl)methylene]-6-methoxy-7-(morpholinomethyl)benzofuran-3(2H)-one]	–	–	40%	–
COc1ccc2c(c1C(C)N1CCNCC1)O/C(=C\c1n[nH]c3ccccc13)C2=O (stereo not shown) [Compound B20, (Z)-2-[(1H-Indazol-3-yl)methylene]-6-methoxy-7-[1-(piperazin-1-yl)-ethyl]benzofuran-3(2H)-one]	95%	–	–	–
COc1ccc2c(c1CN1CCOCC1)O/C(=C\c1c[nH]c3ncccc13)C2=O [Compound A54, (Z)-2-[(1H-Pyrrolo[2,3-b]pyridin-3-yl)methylene]-6-methoxy-7-(morpholinomethyl)benzofuran-3(2H)-one]	–	–	72%	–
COc1ccc2[nH]nc(/C=C3\Oc4c(ccc(O)c4CN4CCNCC4)C3=O)c2c1 [Compound B11, (Z)-6-Hydroxy-7-(piperazin-1-ylmethyl)-2-[(5-methoxy-1H-indazol-3-yl)methylene]benzofuran-3(2H)-one]	87%	–	–	–
O=C1/C(=C/c2c[nH]c3nc(Br)ccc23)Oc2c1ccc(O)c2CN1CCNCC1 [Compound A47, (Z)-2-[(6-Bromo-1H-pyrrolo[2,3-b]pyridin-3-yl)methylene]-6-hydroxy-7-(piperazin-1-ylmethyl)benzofuran-3(2H)-one trihydrochloride]	–	–	98%	–
O=C1/C(=C/c2c[nH]c3nc(Cl)ccc23)Oc2c1ccc(O)c2CN1CCNCC1 [Compound A46, (Z)-2-[(6-Chloro-1H-pyrrolo[2,3-b]pyridin-3-yl)methylene]-6-hydroxy-7-(piperazin-1-ylmethyl)benzofuran-3(2H)-one trihydrochloride]	–	–	99%	–
COc1ccc2c(c1CN1CCOCC1)O/C(=C\c1n[nH]c3ccccc13)C2=O [Compound B33, (Z)-2-[(1H-Indazol-3-yl)methylene]-6-methoxy-7-(morpholinomethyl)benzofuran-3(2H)-one]	39%	–	–	–
CN(C)CCCN(C)Cc1c(O)ccc2c1O/C(=C\c1c[nH]c3ccccc13)C2=O [Compound A8, (Z)-2-[(1H-Indol-3-yl)methylene]-7-({[3-(dimethylamino)propyl](methyl)amino}methyl)-6-hydroxybenzofuran-3(2H)-one]	–	–	20%	–
COc1cc(CN2CCNCC2)c2c(c1)C(=O)/C(=C/c1c[nH]c3ccccc13)O2 [Compound A14, (Z)-2-[(1H-Indol-3-yl)methylene]-5-methoxy-7-(piperazin-1-ylmethyl)benzofuran-3(2H)-one dihydrochloride]	–	–	87%	–
O=C1/C(=C/c2c[nH]c3c([N+](=O)[O-])cccc23)Oc2c1ccc(O)c2CN1CCNCC1 [Compound A27, (Z)-6-Hydroxy-2-[(7-nitro-1H-indol-3-yl)methylene]-7-(piperazin-1-ylmethyl)benzofuran-3(2H)-one dihydrochloride]	–	–	29%	–
O=C1/C(=C/c2n[nH]c3ccc(Cl)cc23)Oc2c1ccc(O)c2CN1CCNCC1 [Compound B9, (Z)-6-Hydroxy-7-(piperazin-1-ylmethyl)-2-[(5-chloro-1H-indazol-3-yl)methylene]benzofuran-3(2H)-one]	93%	–	–	–
O=C1/C(=C/c2c[nH]c3ncc(Br)cc23)Oc2c1ccc(O)c2CN1CCNCC1 [Compound A52, (Z)-2-[(5-Bromo-1H-pyrrolo[2,3-b]pyridin-3-yl)methylene]-6-hydroxy-7-(piperazin-1-ylmethyl)benzofuran-3(2H)-one trihydrochloride]	–	–	101%	–
O=C1/C(=C/c2c[nH]c3ccccc23)Oc2c1cc(-c1ccccc1)c(O)c2CN1CCNCC1 [Compound A13, (Z)-2-[(1H-Indol-3-yl)methylene]-6-hydroxy-5-phenyl-7-(piperazin-1-ylmethyl)benzofuran-3(2H)-one dihydrochloride]	–	–	71%	–
